Results from paper PMC12655637, “Design, Synthesis, and Mechanistic Study of Novel Ciprofloxacin/Thiazole Chalcone Hybrids as Potential Anticancer Agents” (Pharmaceuticals, 2025).

Legend:
Experiment in all cases: NCI-60 screening, one-dose (10 µM) and five-dose, SRB
[1] = tested on: K-562; format: cell-based, human
[2] = tested on: RPMI-8226; format: cell-based, human
[3] = tested on: SR; format: cell-based, human; settings: five-dose
[4] = tested on: EKVX; format: cell-based, human
[5] = tested on: HOP-92; format: cell-based, human
[6] = tested on: NCI-H23; format: cell-based, human
[7] = tested on: NCI-H322M; format: cell-based, human
[8] = tested on: NCI-H460; format: cell-based, human; settings: five-dose, NCI-H460
[9] = tested on: COLO 205; format: cell-based, human
[10] = tested on: HCC-2998; format: cell-based, human
[11] = tested on: HCT-116; format: cell-based, human; settings: five-dose, HCT-116
[12] = tested on: SF-268; format: cell-based, human
[13] = tested on: SF-295; format: cell-based, human
[14] = tested on: SNB-75; format: cell-based, human
[15] = tested on: U251; format: cell-based, human
[16] = tested on: LOX IMVI; format: cell-based, human; settings: five-dose
[17] = tested on: MALME-3M; format: cell-based, human
[18] = tested on: M14; format: cell-based, human
[19] = tested on: SK-MEL-28; format: cell-based, human
[20] = tested on: SK-MEL-5; format: cell-based, human
[21] = tested on: UACC-62; format: cell-based
[22] = tested on: IGROV1; format: cell-based, human
[23] = tested on: OVCAR-4; format: cell-based, human
[24] = tested on: 786−0; format: cell-based, human
[25] = tested on: A498; format: cell-based; settings: five-dose, A498
[26] = tested on: CAKI-1; format: cell-based
[27] = tested on: RXF 393; format: cell-based; settings: Homo sapiens; 10 μM; RXF 393, Renal Cancer; read-out: Growth percentage
[28] = tested on: PC-3; format: cell-based, human
[29] = tested on: DU-145; format: cell-based, human
[30] = tested on: MCF7; format: cell-based, human
[31] = Homo sapiens, K562, five-dose, K-562
[32] = Homo sapiens, read-out: LC50 (the source's name)
[33] = Homo sapiens, five-dose, read-out: LC50 (the source's name)
[34] = Homo sapiens, five-dose, HOP-92
[35] = Homo sapiens, five-dose, NCI-H23
[36] = Homo sapiens, five-dose, COLO 205
[37] = Homo sapiens, five-dose, HCC-2998
[38] = Homo sapiens, five-dose, SF-268
[39] = Homo sapiens, five-dose, SF-295
[40] = Homo sapiens, five-dose, SNB-75
[41] = Homo sapiens, U-251, five-dose, U251
[42] = Homo sapiens, five-dose, SK-MEL-28
[43] = Homo sapiens, five-dose, SK-MEL-5
[44] = Homo sapiens, five-dose, UACC-62
[45] = Homo sapiens, IGROV-1, five-dose, IGROV1
[46] = Homo sapiens, five-dose, OVCAR-4
[47] = Homo sapiens, five-dose, CAKI-1
[48] = Homo sapiens, five-dose, DU-145

## Cc1nc(SCC(=O)N2CCN(c3cc4c(cc3F)c(=O)c(C(=O)O)cn4C3CC3)CC2)sc1C(=O)/C=C/c1cccc(F)c1 [Compound 4d, (E)-1-Cyclopropyl-6-fluoro-7-(4-(2-((5-(3-(3-fluorophenyl)acryloyl)-4-methylthiazol-2-yl)thio)acetyl)piperazin-1-yl)-4-oxo-1,4-dihydroquinoline-3-carboxylic Acid]
[1]; Homo sapiens, K562, 10 μM, K-562, Leukemia, read-out: Growth percentage
  activity at 10 µM: 56.1%
[1]; [31]
  GI50: 1.58 µM
  IC50: 2.4 µM
[1]; Homo sapiens, K562, five-dose, K-562, read-out: LC50 (the source's name)
  CC50: 9.12 µM
[1]; five-dose, K-562
  TGI: 8.7 µM
[2]; Homo sapiens, RPMI-8226, RPMI-8226
  IC50: 0.3 µM
[2]; Homo sapiens, RPMI-8226, five-dose, RPMI-8226
  IC50: 0.34 µM
[2]; Homo sapiens, five-dose, RPMI-8226
  GI50: 0.19 µM
[2]; Homo sapiens, five-dose, RPMI-8226, read-out: LC50 (the source's name)
  CC50: 0.6 µM
[2]; five-dose, RPMI-8226
  TGI: 2.63 µM
[3]; Homo sapiens
  GI50: 1.4 µM
  IC50: 2.3 µM
[3]; [32]
  CC50: 5.3 µM
[3]
  TGI: 100.0 µM
[4]; Homo sapiens, 10 μM, Non-Small-Cell Lung Cancer, read-out: Growth percentage
  activity at 10 µM: 70.2%
[4]; Homo sapiens, five-dose
  GI50: 1.7 µM
  IC50: 5.9 µM
[4]; [33]
  CC50: > 100 µM
[4]; five-dose
  TGI: 100.0 µM
[5]; Homo sapiens, 10 μM, HOP-92, Non-Small-Cell Lung Cancer, read-out: Growth percentage
  activity at 10 µM: 91.9%
[5]; [34]
  GI50: > 100 µM
  IC50: > 100 µM
  LC50 (concentration killing 50% of cells): > 100 µM
[5]; five-dose, HOP-92
  TGI: 100.0 µM
[6]; Homo sapiens, 10 μM, NCI-H23, Non-Small-Cell Lung Cancer, read-out: Growth percentage
  activity at 10 µM: 45.6%
[6]; [35]
  GI50: > 100 µM
  IC50: > 100 µM
  LC50 (50% lethal concentration): > 100 µM
[6]; five-dose, NCI-H23
  TGI: 100.0 µM
[7]; 10 μM, Non-Small-Cell Lung Cancer
  Growth percentage: 95.7%
[7]; Homo sapiens, five-dose
  GI50: > 100 µM
  IC50: > 100 µM
  LC50: > 100 µM
[7]; five-dose
  TGI: 100.0 µM
[8]; Homo sapiens
  GI50: > 100 µM
  IC50: > 100 µM
[8]; [32]
  CC50: > 100 µM
[8]
  TGI: 100.0 µM
[9]; Homo sapiens, 10 μM, COLO 205, Colon Cancer, read-out: Growth percentage
  activity at 10 µM: 102%
[9]; [36]
  GI50: 4.9 µM
  IC50: 9.3 µM
[9]; Homo sapiens, five-dose, COLO 205, read-out: LC50 (the source's name)
  CC50: > 100 µM
[9]; five-dose, COLO 205
  TGI: 19.95 µM
[10]; Homo sapiens, 10 μM, HCC-2998, Colon Cancer, read-out: Growth percentage
  activity at 10 µM: -29%
[10]; [37]
  GI50: 1.4 µM
  IC50: 8.5 µM
[10]; Homo sapiens, five-dose, HCC-2998, read-out: LC50 (the source's name)
  CC50: > 100 µM
[10]; five-dose, HCC-2998
  TGI: 0.42 µM
[11]; Homo sapiens
  GI50: 0.21 µM
  IC50: 0.34 µM
[11]
  TGI: 100.0 µM
[12]; Homo sapiens, 10 μM, SF-268, CNS Cancer, read-out: Growth percentage
  activity at 10 µM: 25.7%
[12]; [38]
  GI50: 27.5 µM
  IC50: > 100 µM
[12]; Homo sapiens, five-dose, SF-268, read-out: LC50 (the source's name)
  CC50: > 100 µM
[12]; five-dose, SF-268
  TGI: 100.0 µM
[13]; Homo sapiens, 10 μM, SF-295, CNS Cancer, read-out: Growth percentage
  activity at 10 µM: 93.1%
[13]; [39]
  GI50: > 100 µM
  IC50: > 100 µM
[13]; Homo sapiens, five-dose, SF-295, read-out: LC50 (the source's name)
  CC50: > 100 µM
[13]; five-dose, SF-295
  TGI: 8.7 µM
[14]; Homo sapiens, 10 μM, SNB-75, CNS Cancer, read-out: Growth percentage
  activity at 10 µM: 49.1%
[14]; [40]
  GI50: > 100 µM
  IC50: > 100 µM
[14]; Homo sapiens, five-dose, SNB-75, read-out: LC50 (the source's name)
  CC50: > 100 µM
[14]; five-dose, SNB-75
  TGI: 100.0 µM
[15]; Homo sapiens, U-251, 10 μM, U251, CNS Cancer, read-out: Growth percentage
  activity at 10 µM: -7.6%
[15]; [41]
  GI50: > 100 µM
  IC50: > 100 µM
[15]; Homo sapiens, U-251, five-dose, U251, read-out: LC50 (the source's name)
  CC50: > 100 µM
[15]; five-dose, U251
  TGI: 100.0 µM
[16]; Homo sapiens
  GI50: 2.8 µM
  IC50: 4.1 µM
[16]; [32]
  CC50: > 100 µM
[16]
  TGI: 100.0 µM
[17]; 10 μM, Melanoma
  Growth percentage: 106.8%
[17]; Homo sapiens, five-dose
  GI50: > 100 µM
  IC50: > 100 µM
[17]; [33]
  CC50: > 100 µM
[17]; five-dose
  TGI: 100.0 µM
[18]; Homo sapiens, 10 μM, M14, Melanoma, read-out: Growth percentage
  activity at 10 µM: -15.3%
[18]; Homo sapiens, five-dose, M14
  GI50: 12 µM
  IC50: > 100 µM
[18]; Homo sapiens, five-dose, M14, read-out: LC50 (the source's name)
  CC50: > 100 µM
[18]; five-dose, M14
  TGI: 100.0 µM
[19]; Homo sapiens, 10 μM, SK-MEL-28, Melanoma, read-out: Growth percentage
  activity at 10 µM: 77.5%
[19]; [42]
  GI50: > 100 µM
  IC50: > 100 µM
[19]; Homo sapiens, five-dose, SK-MEL-28, read-out: LC50 (the source's name)
  CC50: > 100 µM
[19]; five-dose, SK-MEL-28
  TGI: 100.0 µM
[20]; Homo sapiens, 10 μM, SK-MEL-5, Melanoma, read-out: Growth percentage
  activity at 10 µM: 45.1%
[20]; [43]
  GI50: 42.7 µM
  IC50: > 100 µM
[20]; Homo sapiens, five-dose, SK-MEL-5, read-out: LC50 (the source's name)
  CC50: > 100 µM
[20]; five-dose, SK-MEL-5
  TGI: 100.0 µM
[21]; Homo sapiens, 10 μM, UACC-62, Melanoma, read-out: Growth percentage
  activity at 10 µM: 33.1%
[21]; [44]
  GI50: 25.7 µM
  IC50: > 100 µM
[21]; Homo sapiens, five-dose, UACC-62, read-out: LC50 (the source's name)
  CC50: > 100 µM
[21]; five-dose, UACC-62
  TGI: 100.0 µM
[22]; 10 μM, IGROV1, Ovarian Cancer
  Growth percentage: 44.6%
[22]; [45]
  GI50: > 100 µM
  IC50: > 100 µM
[22]; Homo sapiens, IGROV-1, five-dose, IGROV1, read-out: LC50 (the source's name)
  CC50: > 100 µM
[22]; five-dose, IGROV1
  TGI: 100.0 µM
[23]; Homo sapiens, 10 μM, OVCAR-4, Ovarian Cancer, read-out: Growth percentage
  activity at 10 µM: 94.5%
[23]; [46]
  GI50: > 100 µM
  IC50: > 100 µM
[23]; Homo sapiens, five-dose, OVCAR-4, read-out: LC50 (the source's name)
  CC50: > 100 µM
[23]; five-dose, OVCAR-4
  TGI: 100.0 µM
[24]; Homo sapiens, 10 μM, 786−0, Renal Cancer, read-out: Growth percentage
  activity at 10 µM: 41.9%
[24]; Homo sapiens, five-dose, 786−0
  IC50: > 100 µM
[24]; Homo sapiens, five-dose, 786−0, read-out: LC50 (the source's name)
  CC50: > 100 µM
[24]; five-dose, 786−0
  TGI: 100.0 µM
[25]; Homo sapiens
  GI50: > 100 µM
  IC50: > 100 µM
[25]; [32]
  CC50: > 100 µM
[25]
  TGI: 100.0 µM
[26]; Homo sapiens, 10 μM, CAKI-1, Renal Cancer, read-out: Growth percentage
  activity at 10 µM: 79.8%
[26]; [47]
  GI50: > 100 µM
  IC50: > 100 µM
[26]; Homo sapiens, five-dose, CAKI-1, read-out: LC50 (the source's name)
  CC50: > 100 µM
[26]; five-dose, CAKI-1
  TGI: 100.0 µM
[27]
  activity at 10 µM: -25.9%
[28]; Homo sapiens, 10 μM, PC-3, Prostate Cancer, read-out: Growth percentage
  activity at 10 µM: 53.4%
[28]; Homo sapiens, five-dose, PC-3
  GI50: 51.3 µM
  IC50: > 100 µM
[28]; Homo sapiens, five-dose, PC-3, read-out: LC50 (the source's name)
  CC50: > 100 µM
[28]; five-dose, PC-3
  TGI: 100.0 µM
[29]; Homo sapiens, 10 μM, DU-145, Prostate Cancer, read-out: Growth percentage
  activity at 10 µM: 73.7%
[29]; [48]
  GI50: > 100 µM
  IC50: > 100 µM
[29]; Homo sapiens, five-dose, DU-145, read-out: LC50 (the source's name)
  CC50: > 100 µM
[29]; five-dose, DU-145
  TGI: 100.0 µM
[30]; Homo sapiens, MCF7, 10 μM, MCF7, Breast Cancer, read-out: Growth percentage
  activity at 10 µM: -57.6%
[30]; Homo sapiens, five-dose, MCF7
  GI50: 0.49 µM
  IC50: 0.69 µM
[30]; Homo sapiens, five-dose, MCF7, read-out: LC50 (the source's name)
  CC50: > 100 µM
[30]; five-dose, MCF7
  TGI: 100.0 µM
